Data taken from US8883752B2, “5′ and 2′ BIS-substituted nucleosides and oligomeric compounds prepared therefrom” (Isis Pharmaceuticals, Inc., priority 2008, dated 2014).
Oligonucleotides are written 5' to 3', each unit as a sugar letter and its base; * is a phosphorothioate linkage, no mark a phosphodiester; rarer units and linkages stand in square brackets, end groups in braces. Plain capitals give the bases only. [DMAEAc-N] = 2'-O-dimethylaminoethyl acetamide sugar (N: the base); [5'R-Me-N] = (R)-5'-methyl-2'-deoxyribonucleoside (N: the base); {Py} = methylenephosphonate group, PO(OH)2CH2-; e = 2'-O-(2-methoxyethyl) (MOE); [5mC] = 5-methylcytosine; d = 2'-deoxy (DNA); m = 2'-O-methyl; {P} = phosphate; f = 2'-fluoro

Key:
[1] = Modified ssRNA 5′-phosphate serum stability assay; type: in vitro ADME; details: 10 μM in 95% fresh mouse serum, 37° C., 0-24 h, LC/MS
Excerpt: A serum stability assay is useful for evaluating the stability of oligomeric compounds in the presences of nucleases and other enzymes found in serum. For example, the stability of a 5′-terminal phosphate group of an oligomeric compound can be evaluated by assessing the ability of the 5′-terminal phosphate group to remain attached to the oligomeric compound in the presence of serum. Accordingly, a serum stability assay was employed to evaluate the stability of modified ssRNAs having a 5′-terminal phosphate group.
Various modified ssRNAs, shown below, having a 5′-terminal phosphate group (10 μM) were dissolved in 95% of fresh mouse serum and incubated at 37° C. Aliquots of serum (100 μL) were removed after 0, 1, 3, 6 or 24 hours of incubation times. The serum samples were immediately quenched and snap frozen. The samples were extracted by the strong anion exchange (SAX) and octadecylsilyl (C-18) columns. For each incubation time, the amount of full length modified ssRNA having a 5′-terminal phosphate group was determined by LC/MS, and the half-life of the full length modified ssRNA having a 5′ terminal phosphate group was calculated. The results are expressed as half-time (T1/2) in the table below.

PTEN mRNA = PTEN mRNA levels in liver of Balb/c mice after single i.p. injection (Example 65); type: in vivo, mouse; details: 48 h; for Inhibition of PTEN in vivo (in words): 75 mg/kg; for % inhibition of PTEN mRNA expression: liver, single i.p. 75 mg/kg, normalized to saline-injected control
Experimental: In accordance with the present disclosure, oligomeric compounds were synthesized and tested for their ability to reduce PTEN expression in vivo at dose of 75 mg/kg. Six week old male Balb/c mice (Jackson Laboratory, Bar Harbor, Me.) were administered a single intraperitoneal (i.p) injection at 75 mg/kg of ISIS 467074 having a 5′-phosphate group and […] having a 5′-methylenephosphonate group, (PO(OH)2CH2—). A 5-10-5 gapped oligomer, ISIS 116847 having 2′-O-MOE modified nucleosides in wings with a 5′-phosphorothioate group was included for comparison.
Each dose group consisted of four animals. The mice were sacrificed 48 hours following the final administration to determine the PTEN mRNA levels in liver using real-time PCR and RIBOGREEN® RNA quantification reagent (Molecular Probes, Inc. Eugene, Oreg.) according to standard protocols. PTEN mRNA levels were determined relative to total RNA (using Ribogreen), prior to normalization to saline-treated control. Results are listed below as the average % inhibition of PTEN mRNA expression for each treatment group, normalized to saline-injected control.

[2] = In vivo stability: tissue level of intact compound (Example 66); parameters: species or system mouse; details: Balb/c mice
Experimental: […] were homogenized in a homogenation buffer (20 mM Tris, pH 8, 20 mM EDTA and 0.1 M NaCl in 0.5% NP-40) at time points 0, 5, 10, 20, 30, 40 and 60 minutes (Exception: 06/408877 at time points 0, 15, 30, 60, 120 and 240 mins, 06/409044, at time points 0, 0.5, 1, 2, 4, 8, and 18 hours). An internal standard (18/355868, a 27-mer, 2′-O-methoxyethyl-modified phosphorothioate oligonucleotide, or 19/116847, a 5-10-5 gapmer, 2′-O-methoxyethyl-modified phosphorothioate oligonucleotide) with concentration at 20 μg/g was added prior to extraction. Tissue samples were extracted with 70 μL of NH4OH and 240 μL of phenol/chloroform/isoamyl alcohol (25:24:1). The supernatant was removed after centrifugation at 14000 rpm for […]. The remaining extractant was vortexed with an additional 500 μL of water and the aqueous layer was removed and combined with the supernatant after centrifugation at 14000 rpm for 2 minutes.
Triethylammonium acetate solution at 1M (500 μL) was added to the supernatant. The aqueous layer of the mixture was loaded onto the pre-conditioned Biotage™ Phenyl Solid Phase Extraction Plate (SPE plate) after centrifugation at 9000 rpm for 20 minutes. The SPE plate was washed several times with water. The sample was then eluted with 1.5 mL of 1% TEA in 90% MeOH and filtered through the Protein Precipitation Plate (Phenomenex™). The elutent was evaporated to dryness and diluted to 200 μL with 50% quenching buffer (8 M urea, 50 mM EDTA) and water before sample injection.
An Agilent 1100 Series LC/MSD system was connected in-line to a mass spectrometry. Mass spectrometer was operated in the electrospray negative ionization mode. The nebulizer nitrogen gas was set at […] and the drying nitrogen gas was set at 12 L/min. The drying temperature was 325° C. Samples (25 μL/well) were introduced via an auto sampler and reversed-phase chromatography was carried out with an)(Bridge OST C18 2.5 μm 2.1 mm×50 mm HPLC column using a flow rate of 300 μL/min at 55° C. The ion pair buffers consisted of A: 5 mM tributylammonium acetate (TBAA) in 20% acetonitrile and B: […] TBAA in 90% acetonitrile and the loading buffer was 25 mM TBAA in 25% Acetonitrile. Separation was performed on a 30% to 70% B in 9 min and then 80% B in 11 min gradient.
Quantitative analysis of oligonucleotide and internal standard by extracted ion chromatograms of the most abundant ions was performed using MSD ChemStation software.
The in vivo stability of the three oligomeric compounds in Example 65 was evaluated. The tissue samples were obtained from the animals in which PTEN was assessed. Tissue samples were collected and prepared using the same technique described in Example 64. Quantitative analysis of the oligonucleotides standard were performed by extracted ion chromatograms in the most abundant charge state (−4) using Chemstation software. The tissue level (μg/g) of intact compound of ISIS 116847, 467074 and 467076 was measured and are provided below.

| Substance | T1/2 (h) of full length modified ssRNA having a 5′-terminal phosphate group [1] [h] | Inhibition of PTEN in vivo (in words) (PTEN mRNA) | % inhibition of PTEN mRNA expression (PTEN mRNA) [%] | Tissue Level of intact compound ([2]; 75 mg/kg i.p., 48 h time point, LC-MS) [µg/g] | Level of intact compound in tissue (in words) ([2]; 75 mg/kg, 48 h) | Compound lacking the 5′-phosphate in tissue ([2]; 75 mg/kg, 48 h) |
| --- | --- | --- | --- | --- | --- | --- |
| ISIS 404320: modified ssRNA targeting PTEN, SEQ ID NO 05: P-UfUfGfUfCfUfCfUfGfGfUfCfCfUfUfAfCfUfUfAeAe (antisense {P}-fUfUfGfUfCfUfCfUfGfGfUfCfCfU*fU*fA*fC*fU*fU*eA*eA; single-stranded RNA for RNAi) | 4 |  |  |  |  |  |
| ISIS 432356: modified ssRNA, SEQ ID NO 06: P-TRUfGfUfCfUfCfUfGfGfUfCfCfUfUfAfCfUfUfAeAe; R = (R)-5′-methyl-2′-deoxyribonucleoside (antisense {P}-[5'R-Me-T]fUfGfUfCfUfCfUfGfGfUfCfCfU*fU*fA*fC*fU*fU*eA*eA; single-stranded RNA for RNAi) | 8.7 |  |  |  |  |  |
| ISIS 398701: modified ssRNA, SEQ ID NO 09: P-USfUfGfUfCfUfCfUfGfGfUfCfCfUfUfAfCfUfUf (antisense UUGUCUCUGGUCCUUACUU; 5'-phosphate, 2'-fluoro, phosphorothioate, chemistry not fully specified) | 18.2 |  |  |  |  |  |
| ISIS 116847: 5-10-5 gapped oligomer with 2′-O-MOE wings, included for comparison: meCeTeGemeCeTeAGmeCmeCTmeCTGGATeTeTeGeAe (e[5mC]*eT*eG*e[5mC]*eT*dA*dG*d[5mC]*d[5mC]*dT*d[5mC]*dT*dG*dG*dA*eT*eT*eT*eG*eA) [reference compound] |  | potent inhibitor of PTEN | 76 | 131.1 | present at high levels |  |
| ISIS 467076: 5′-methylenephosphonate ssRNA, SEQ ID NO 05: Py-meUmUfGmUfCmUfCmUfGmGfUmCfCmUfUmAfCmUfUmAeAe (antisense {Py}-mT*fU*mGfU*mCfU*mCfU*mGfG*mUfC*mCfU*mU*fA*mC*fU*mU*eA*eA; further chemistry not fully specified) |  | smaller inhibition of PTEN | 16 |  | present at a lower concentration |  |
| ISIS 422391: modified ssRNA, SEQ ID NO 06: P-TdUfGfUfCfUfCfUfGfGfUfCfCfUfUfAfCfUfUfAeAe; d = 2′-O-DMAEAc (antisense {P}-[DMAEAc-T]fUfGfUfCfUfCfUfGfGfUfCfCfU*fU*fA*fC*fU*fU*eA*eA; single-stranded RNA for RNAi) | 6.5 |  |  |  |  |  |
| ISIS 467074: modified ssRNA, SEQ ID NO 06: P-TScUfGmUfCmUfCmUfGmGfUmCfCmUfUmAfCmUfUmAeAe (antisense TUGUCUCUGGUCCUUACUUAA; 5'-phosphate, modified sugars, 2'-F/2'-OMe, MOE, chemistry not fully specified) |  | lowest amount of PTEN reduction | 11 |  | not detected | lacking the 5′-phosphate was detected |
